Measured values reported in paper PMC12718081 (ACS Infectious Diseases, 2025).
“And” between values parts separate entries of the source, which are not always exact repeats. Equal entries are not always repeated. “Also recorded” adds a separate entry of the source. Where two headings read alike, the source gives them in different places.

How the values were obtained:
[1] = target: Sm.TRPMPZQ (wild-type) (Schistosoma mansoni, UniProt A0A5K4F0X5); test: Ca2+ reporter (FLIPR) activation assay, wild-type Sm.TRPMPZQ in HEK293 cells; assay type: cell-based; conditions: for Emax: read-out: Bmax, wild-type Sm.TRPMPZQ activation
Method: (§1) The Ca^2+ reporter assay was performed using a Fluorescence Imaging Plate Reader (FLIPR) system, as described in the Supporting Information. […]
(§2) The half-maximal inhibitory
(§3) Windows (GraphPad Software, Boston, MA, USA; www.graphpad.com). […]
(§4) with DMSO as a negative control. […]
(§5) reader. […] The fluorescence
(§6) Untransfected HEK293 cells were used as a control.
(§7) 10% fetal bovine serum (FBS). […]
(§8) atmosphere containing 5% CO₂. Following incubation, the growth medium was removed and […]
buffer containing 2.5 mM probenecid in HBSS (with Ca²⁺ and Mg²⁺), 20 mM HEPES, 0.3% BSA (Sigma, A7030), and 0.03% L-ascorbic acid (Sigma). Cells were incubated for 40 minutes at 37 °C and subsequently for 20 minutes at room temperature. […]
prepared in assay buffer without dye and probenecid and dispensed into separate flat-bottom 384-well plates. Calcium flux measurements were performed at room temperature using a […]
(§9) instrument (Molecular Devices). Baseline fluorescence was recorded for 20 seconds, followed by the addition of 5 µL of each drug solution, after which fluorescence was measured continuously for 250 seconds. […]

[2] = system: Sm.TRPMMCLZ; test: Ca2+ reporter (FLIPR) activation assay, Sm.TRPMMCLZ in HEK293 cells; assay type: cell-based, Schistosoma mansoni; conditions: at the tested concentrations, data not shown
Method: (§10) Finally, selectivity for Sm.TRPMPZQ was assessed by profiling responses on the F. hepatica (Fh.TRPMPZQ) and E. granulosus (Eg.TRPMPZQ) TRPMPZQ orthologs, as well as the schistosome TRPM paralog Sm.TRPMMCLZ, a distinct TRPM channel activated by meclonazepam. Meclonazepam is an anthelmintic benzodiazepine known for its toxicity to juvenile schistosome worms.
as §1, §2, §3, §4, §5, §6, §7, §8
(§11) buffer containing 2.5 mM probenecid in HBSS (with Ca²⁺ and Mg²⁺), 20 mM HEPES, 0.3% BSA (Sigma, A7030), and 0.03% L-ascorbic acid (Sigma). Cells were incubated for 40 minutes at 37 °C and subsequently for 20 minutes at room temperature. A total of seven PZQ derivatives were tested, using racemic PZQ included as a positive control on each assay plate. Drug dilutions were prepared in assay buffer without dye and probenecid and dispensed into separate flat-bottom 384-well plates. Calcium flux measurements were performed at room temperature using a […]
as §9

[3] = target: Eg.TRPMPZQ (Echinococcus granulosus, UniProt W6UVV9); test: cell-based; conditions: HEK293, Ca2+ reporter, mean ± standard deviation; for Emax: read-out: Bmax, Eg.TRPMPZQ activation
[4] = system: Fh.TRPMPZQ; test: Ca2+ reporter (FLIPR) activation assay, Fh.TRPMPZQ in HEK293 cells; assay type: cell-based, Fasciola hepatica; conditions: at the tested concentrations, data not shown
Method: as §10, §1, §2, §3, §4, §5, §6, §7, §8, §11, §9

[5] = system: HepG2 hepatic epithelial cells; test: in vitro; conditions: for Selectivity Index (CC50/EC50), Female: HepG2 CC50 / female worm motility EC50, 48 h; for Selectivity Index (CC50/EC50), Male: HepG2 CC50 / male worm motility EC50, 48 h
Method: (§12) Next, we conducted a more detailed investigation by performing dose–response assays with each compound on HepG2 hepatic epithelial cells, as the liver is one of the major organs affected in intestinal schistosomiasis.
(§13) More details are provided in the Supporting Information.
(§14) Adult worm ex-vivo high-content assay
(§15) Male and female worms were placed in 96-well microplates (one worm per well) and incubated […]
(§16) to 72 hours. Brightfield timelapse images (100 images, 0.3-second intervals) were captured from each well before, immediately after, and every 24 hours following compound addition using an ImageXpress Micro Confocal High Content System equipped with a 2x objective. Image analysis was performed through a custom pipeline in CellProfiler software (v. 4.2.1, Windows OS).57 During analysis, the area of each worm and its displacement between consecutive image captures (i.e., images taken at successive time points) were measured using the parameters “Area” and “False Negative Rate” from the MeasureObjectSizeShape and MeasureObjectOverlap modules, respectively. These measurements were then modeled by a multilevel generalized linear statistical model. The effects of the experimental treatments on parasite motility were estimated with the integrated nested Laplace approximation (INLA) method, available in the INLA package of R (https://www.r-inla.org). The half-maximal inhibitory concentration (EC50) of each compound was calculated based on the worms' estimated motility using the […] 4-parameter logistic equation in GraphPad Prism version 9.0.0 for Windows (GraphPad Software, Boston, MA, USA; www.graphpad.com). […]
(§17) either at a fixed concentration (10 µM) or across a range of concentrations (0.0001–300 µM), or with DMSO as a negative control. Two hours before the end of the experiment (t0), a resazurin solution (final concentration: 0.01 mg/mL) was added to each well and the first fluorescence […]
(§18) reader. At the end of the incubation (t1), a second reading was performed. The fluorescence attributed solely to resorufin was measured by subtracting the fluorescence readings at t0 from those at t1. The results were expressed as percentual cell viability considering negative control

[6] = in vitro; conditions: human, HepG2 cytotoxicity (CC50)
Method: as §12, §13, §14, §15, §16, §17, §18

[7] = system: adult schistosomes (male and female worms); test: Adult worm ex vivo high-content image-based motility assay; assay type: cell-based, Schistosoma mansoni
Method: Adult schistosomes’ motility was determined using a high-content assay previously developed by our group, , with images analyzed in CellProfiler software. More details are provided in the Supporting Information.
as §14
“Area” and “False Negative Rate” from the MeasureObjectSizeShape and MeasureObjectOverlap modules, respectively. These measurements were then modeled by a multilevel generalized linear statistical model. The effects of the experimental treatments on […]
as §2, §3
with DMSO as a negative control.

[8] = system: juvenile schistosomes; test: Microscopy analysis of juvenile morphology and motility (viability score 0-3); conditions: 10 μM, 72 h, Table S1
[9] = values of independent experiments
[10] = Schistosoma mansoni, 0 h, female adult worms, 0 h (immediately after addition), single experiment or geometric mean, read-out: Female worm motility inhibition (EC50)
[11] = Schistosoma mansoni, 0 h, male adult worms, 0 h (immediately after addition), single experiment or geometric mean, read-out: Male worm motility inhibition (EC50)
[12] = Schistosoma mansoni, 0 h, male, 0 h, individual experiments, read-out: Male worm motility inhibition (EC50), values of independent experiments
[13] = Schistosoma mansoni, 24 h, female adult worms, 24 h, single experiment or geometric mean, read-out: Female worm motility inhibition (EC50)
[14] = Schistosoma mansoni, 24 h, male adult worms, 24 h, single experiment or geometric mean, read-out: Male worm motility inhibition (EC50)
[15] = Schistosoma mansoni, 24 h, male, 24 h, individual experiments, read-out: Male worm motility inhibition (EC50), values of independent experiments
[16] = Schistosoma mansoni, 48 h, female adult worms, 48 h, single experiment or geometric mean, read-out: Female worm motility inhibition (EC50)
[17] = Schistosoma mansoni, 48 h, male adult worms, 48 h, single experiment or geometric mean, read-out: Male worm motility inhibition (EC50)
[18] = Schistosoma mansoni, 48 h, male, 48 h, individual experiments, read-out: Male worm motility inhibition (EC50), values of independent experiments
[19] = Schistosoma mansoni, 72 h, female adult worms, 72 h, single experiment or geometric mean, read-out: Female worm motility inhibition (EC50)
[20] = Schistosoma mansoni, 72 h, male adult worms, 72 h, single experiment or geometric mean, read-out: Male worm motility inhibition (EC50)
[21] = Schistosoma mansoni, 72 h, male, 72 h, individual experiments, read-out: Male worm motility inhibition (EC50), values of independent experiments
[22] = female adult worms, 0 h (immediately after addition), single experiment or geometric mean, read-out: Female worm motility inhibition (EC50)
[23] = female adult worms, 24 h, single experiment or geometric mean, read-out: Female worm motility inhibition (EC50)
[24] = male adult worms, 0 h (immediately after addition), single experiment or geometric mean, read-out: Male worm motility inhibition (EC50)
[25] = male adult worms, 48 h, single experiment or geometric mean, read-out: Male worm motility inhibition (EC50)
[26] = male adult worms, 72 h, single experiment or geometric mean, read-out: Male worm motility inhibition (EC50)
[27] = male, 24 h, individual experiments, read-out: Male worm motility inhibition (EC50), values of independent experiments
[28] = male, 48 h, individual experiments, read-out: Male worm motility inhibition (EC50), values of independent experiments
[29] = male, 72 h, individual experiments, read-out: Male worm motility inhibition (EC50), values of independent experiments
[30] = Schistosoma mansoni, male, 0-72 h, read-out: EC50 against male adult worms (motility), span over incubation times
[31] = female adult worms, 72 h, single experiment or geometric mean, read-out: Female worm motility inhibition (EC50)

Eg.TRPMPZQ, sequence (W6UVV9 entry or part of it): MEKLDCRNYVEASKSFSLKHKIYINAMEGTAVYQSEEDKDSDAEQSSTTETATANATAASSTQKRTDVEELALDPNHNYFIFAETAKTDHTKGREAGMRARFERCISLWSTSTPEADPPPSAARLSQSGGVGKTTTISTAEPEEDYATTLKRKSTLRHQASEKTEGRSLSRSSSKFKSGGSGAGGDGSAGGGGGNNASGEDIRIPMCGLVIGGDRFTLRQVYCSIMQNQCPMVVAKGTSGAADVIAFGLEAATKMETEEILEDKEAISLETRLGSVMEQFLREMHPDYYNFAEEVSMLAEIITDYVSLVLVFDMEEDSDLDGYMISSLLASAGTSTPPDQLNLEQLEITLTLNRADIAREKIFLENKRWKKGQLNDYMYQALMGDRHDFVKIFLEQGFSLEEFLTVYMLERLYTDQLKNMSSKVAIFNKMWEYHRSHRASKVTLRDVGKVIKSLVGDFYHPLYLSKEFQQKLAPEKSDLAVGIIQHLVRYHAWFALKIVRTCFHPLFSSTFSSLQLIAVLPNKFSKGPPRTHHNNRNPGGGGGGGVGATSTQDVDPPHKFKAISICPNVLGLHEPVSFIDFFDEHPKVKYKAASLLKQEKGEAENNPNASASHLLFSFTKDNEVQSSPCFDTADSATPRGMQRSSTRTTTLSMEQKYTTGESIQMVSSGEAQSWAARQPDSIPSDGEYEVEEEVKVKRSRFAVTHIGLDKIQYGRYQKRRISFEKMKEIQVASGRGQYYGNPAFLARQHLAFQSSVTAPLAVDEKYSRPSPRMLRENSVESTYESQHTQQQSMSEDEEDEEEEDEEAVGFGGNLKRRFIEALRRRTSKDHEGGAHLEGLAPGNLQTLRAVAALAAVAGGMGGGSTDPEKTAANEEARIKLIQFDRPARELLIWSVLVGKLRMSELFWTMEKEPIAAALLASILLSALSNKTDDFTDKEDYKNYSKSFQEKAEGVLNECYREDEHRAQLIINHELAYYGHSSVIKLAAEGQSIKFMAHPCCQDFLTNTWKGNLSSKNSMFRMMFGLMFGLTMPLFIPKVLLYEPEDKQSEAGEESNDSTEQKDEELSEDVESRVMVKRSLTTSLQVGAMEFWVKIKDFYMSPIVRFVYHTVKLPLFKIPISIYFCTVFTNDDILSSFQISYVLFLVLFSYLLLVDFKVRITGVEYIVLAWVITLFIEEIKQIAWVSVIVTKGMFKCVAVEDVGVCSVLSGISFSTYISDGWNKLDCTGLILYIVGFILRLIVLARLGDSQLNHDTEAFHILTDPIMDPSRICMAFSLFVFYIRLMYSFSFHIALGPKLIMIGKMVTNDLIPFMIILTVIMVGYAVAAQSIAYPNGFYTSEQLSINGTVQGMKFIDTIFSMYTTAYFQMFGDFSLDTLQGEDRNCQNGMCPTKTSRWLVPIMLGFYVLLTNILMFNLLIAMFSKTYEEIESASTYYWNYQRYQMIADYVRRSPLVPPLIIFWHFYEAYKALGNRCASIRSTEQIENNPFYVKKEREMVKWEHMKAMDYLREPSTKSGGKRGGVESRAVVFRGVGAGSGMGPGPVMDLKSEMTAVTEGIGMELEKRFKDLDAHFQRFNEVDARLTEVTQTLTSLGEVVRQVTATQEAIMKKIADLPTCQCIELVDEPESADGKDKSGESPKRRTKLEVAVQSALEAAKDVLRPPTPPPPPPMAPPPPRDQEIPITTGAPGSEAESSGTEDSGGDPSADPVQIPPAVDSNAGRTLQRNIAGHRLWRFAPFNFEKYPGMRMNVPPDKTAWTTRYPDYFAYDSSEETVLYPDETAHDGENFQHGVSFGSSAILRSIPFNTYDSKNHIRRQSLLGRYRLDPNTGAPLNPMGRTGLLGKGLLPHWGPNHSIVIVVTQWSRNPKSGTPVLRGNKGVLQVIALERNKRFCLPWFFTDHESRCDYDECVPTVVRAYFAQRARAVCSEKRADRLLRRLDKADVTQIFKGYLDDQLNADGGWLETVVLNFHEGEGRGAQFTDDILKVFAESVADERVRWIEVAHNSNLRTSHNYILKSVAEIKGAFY
Sm.TRPMPZQ (wild-type), sequence (A0A5K4F0X5 entry or part of it): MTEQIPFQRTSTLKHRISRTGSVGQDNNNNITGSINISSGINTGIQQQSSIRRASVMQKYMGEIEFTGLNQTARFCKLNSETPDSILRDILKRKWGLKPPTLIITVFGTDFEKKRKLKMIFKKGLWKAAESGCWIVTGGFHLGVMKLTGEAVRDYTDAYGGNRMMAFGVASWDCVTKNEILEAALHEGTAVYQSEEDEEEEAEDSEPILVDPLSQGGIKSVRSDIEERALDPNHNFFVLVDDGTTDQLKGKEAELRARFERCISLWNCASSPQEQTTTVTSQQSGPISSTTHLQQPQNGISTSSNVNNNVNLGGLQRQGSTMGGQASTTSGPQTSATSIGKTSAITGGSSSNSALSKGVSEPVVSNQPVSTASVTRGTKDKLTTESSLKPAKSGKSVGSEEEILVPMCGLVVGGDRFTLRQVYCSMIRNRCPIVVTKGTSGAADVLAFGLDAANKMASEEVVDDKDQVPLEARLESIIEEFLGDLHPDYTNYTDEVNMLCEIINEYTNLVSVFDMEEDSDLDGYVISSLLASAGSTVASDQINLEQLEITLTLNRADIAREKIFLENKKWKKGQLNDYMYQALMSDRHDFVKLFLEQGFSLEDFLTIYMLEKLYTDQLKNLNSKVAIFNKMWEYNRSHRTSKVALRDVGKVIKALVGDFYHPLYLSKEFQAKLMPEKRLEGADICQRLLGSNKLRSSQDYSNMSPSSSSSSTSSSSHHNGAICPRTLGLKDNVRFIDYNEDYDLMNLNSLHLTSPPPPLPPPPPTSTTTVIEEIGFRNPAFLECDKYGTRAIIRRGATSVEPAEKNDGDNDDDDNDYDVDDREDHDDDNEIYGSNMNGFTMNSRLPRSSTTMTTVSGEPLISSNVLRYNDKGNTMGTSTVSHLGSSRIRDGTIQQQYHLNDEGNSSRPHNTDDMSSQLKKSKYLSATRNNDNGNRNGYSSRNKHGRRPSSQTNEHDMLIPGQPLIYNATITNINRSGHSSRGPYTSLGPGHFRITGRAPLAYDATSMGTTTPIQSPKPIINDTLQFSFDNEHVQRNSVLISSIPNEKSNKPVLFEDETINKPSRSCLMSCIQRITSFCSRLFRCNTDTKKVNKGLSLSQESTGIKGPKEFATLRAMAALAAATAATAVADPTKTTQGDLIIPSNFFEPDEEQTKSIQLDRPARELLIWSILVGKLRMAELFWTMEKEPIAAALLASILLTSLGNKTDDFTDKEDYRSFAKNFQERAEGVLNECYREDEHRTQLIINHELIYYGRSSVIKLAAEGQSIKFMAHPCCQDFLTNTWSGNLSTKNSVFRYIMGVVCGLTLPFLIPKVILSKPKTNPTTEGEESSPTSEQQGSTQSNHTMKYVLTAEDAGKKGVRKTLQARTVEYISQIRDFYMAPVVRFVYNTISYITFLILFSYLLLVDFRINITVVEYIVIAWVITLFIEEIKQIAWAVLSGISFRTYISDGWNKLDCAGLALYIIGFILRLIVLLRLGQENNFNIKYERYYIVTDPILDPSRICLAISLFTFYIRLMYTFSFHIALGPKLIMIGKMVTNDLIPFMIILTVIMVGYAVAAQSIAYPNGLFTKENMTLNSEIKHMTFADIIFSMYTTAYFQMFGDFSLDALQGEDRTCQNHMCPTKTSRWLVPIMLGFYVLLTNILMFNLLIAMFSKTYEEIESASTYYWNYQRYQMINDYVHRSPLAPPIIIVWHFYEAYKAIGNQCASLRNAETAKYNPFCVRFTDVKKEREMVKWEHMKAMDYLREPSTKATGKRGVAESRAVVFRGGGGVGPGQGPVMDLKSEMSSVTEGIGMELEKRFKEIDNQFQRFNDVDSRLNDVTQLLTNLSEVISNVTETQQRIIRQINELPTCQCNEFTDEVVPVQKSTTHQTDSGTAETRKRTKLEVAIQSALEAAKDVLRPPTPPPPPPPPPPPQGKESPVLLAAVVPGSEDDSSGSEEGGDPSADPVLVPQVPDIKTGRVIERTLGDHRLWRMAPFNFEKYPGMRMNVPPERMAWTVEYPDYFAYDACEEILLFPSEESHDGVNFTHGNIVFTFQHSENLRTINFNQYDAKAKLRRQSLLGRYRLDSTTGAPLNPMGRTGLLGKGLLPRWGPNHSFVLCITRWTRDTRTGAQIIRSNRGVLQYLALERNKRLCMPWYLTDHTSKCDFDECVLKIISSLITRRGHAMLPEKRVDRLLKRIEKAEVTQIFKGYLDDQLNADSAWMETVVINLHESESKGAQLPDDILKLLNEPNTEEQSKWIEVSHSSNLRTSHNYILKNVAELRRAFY

SMILES | Emax [3] [%] | Selectivity Index (CC50/EC50), Female [5] | Selectivity Index (CC50/EC50), Male [5] | CC50 at 48 h [6] [µM] | CC50 at 48 h [6, 9] [µM] | EC50 [7, 10] [µM] | EC50 [7, 11] [µM] | EC50 [7, 12] [µM] | EC50 [7, 13] [µM] | EC50 [7, 14] [µM] | EC50 [7, 15] [µM] | EC50 [7, 16] [µM] | EC50 [7, 17] [µM] | EC50 [7, 19] [µM] | EC50 [7, 20] [µM] | EC50 [7, 21] [µM] | EC50 [7, 23] [µM] | EC50 [7, 27] | EC50 [7, 28] | EC50 [7, 29] | also measured
O=C(C1CCCCC1)N1CC(=O)N2CCc3ccc([N+](=O)[O-])cc3C2C1 (centres unmarked) [Compound 2, 9-NO2–PZQ] | 114 ± 10.5 | 12.7 and 13 | 23.1 and 23 | 368 | 354 | 27.7 | 10.7 | 10 | 28.8 | 14.3 | 10.3 | 29.1 | 15.9 | 30 | 15.4 | 11.9 | 29 | 19.8 µM | 21.7 µM | 19.9 µM | EC50 ([1]; 0.001 to 100 μM): 13.5 ± 0.49 µM; Emax [1]: 66.6 ± 1.98%; activation of Sm.TRPMMCLZ [2]: did not activate; activation of Fh.TRPMPZQ [4]: did not activate; EC50 [7, 18]: 11.6 µM; EC50 [7, 22]: 27.7 µM; EC50 ([7]; female adult worms, 48 h, single experiment or geometric mean, read-out: Female worm motility inhibition (EC50)): 29 µM; EC50 [7, 24]: 11 µM; EC50 ([7]; male adult worms, 24 h, single experiment or geometric mean, read-out: Male worm motility inhibition (EC50)): 14 µM; EC50 [7, 25]: 16 µM; EC50 [7, 26]: 15 µM; number of juvenile worms with viability score 0 [8]: 70; number of juvenile worms with viability score 1 [8]: 3; number of juvenile worms with viability score 2 [8]: 7; number of juvenile worms with viability score 3 [8]: 74
[N-]=[N+]=Nc1ccc2c(c1)C1CN(C(=O)C3CCCCC3)CC(=O)N1CC2 (centres unmarked) [Compound 4] | 145 ± 14.6 | 16.6 and 17 | 97.7 and 98 | 156 | 155 | 6.7 | 2.3 | 2.83 | 3.15 | 1.8 | 2.56 | 9.4 | 1.6 | 3.48 | 1.3 | 1.22 | 3.1 | 1.42 µM and 1.74 µM | 2.37 µM and 1.1 µM and 1.71 µM | 1 µM and 1.72 µM | EC50 ([1]; 0.001 to 100 μM): 0.89 ± 0.03 µM; Emax [1]: 80.5 ± 2.19%; activation of Sm.TRPMMCLZ [2]: did not activate; activation of Fh.TRPMPZQ [4]: did not activate; EC50 [7, 30]: 1.3 to 2.3 µM; EC50 [7, 31]: 3.5 µM; EC50 ([7]; female, 0 h, individual experiments, read-out: Female worm motility inhibition (EC50), values of independent experiments): 14.8 µM and 3.02 µM; EC50 ([7]; female, 48 h, individual experiments, read-out: Female worm motility inhibition (EC50), values of independent experiments): 26.8 µM and 3.34 µM; EC50 ([7]; male, 0 h, individual experiments, read-out: Male worm motility inhibition (EC50), values of independent experiments): 1.93 µM; number of juvenile worms with viability score 0 [8]: 48; number of juvenile worms with viability score 1 [8]: 4; number of juvenile worms with viability score 2 [8]: 25; number of juvenile worms with viability score 3 [8]: 12
O=C(C1CCCCC1)N1CC(=O)N2CCc3ccc(-n4cc(C5=CCCCC5)nn4)cc3C2C1 (centres unmarked) [Compound 5b] | 10.4 ± 0.31 | 0.3 | 0.6 | 28.5 | 28.7 | 101 | 32.7 | 31.6 | 96.2 | 47 | 50.4 | 95 | 49.2 | 89.1 | 40.5 | 44.7 | 96 | 43.8 µM | 44.6 µM | 36.6 µM | Bmax, wild-type Sm.TRPMPZQ activation [1]: No activity; EC50 for wild-type Sm.TRPMPZQ activation ([1]; 0.001 to 100 μM): failed to activate; also recorded: No activity; EC50 for Eg.TRPMPZQ activation [3]: No signal; Selectivity Index (SI), sex not specified ([5]; HepG2 vs adult worms, 48 h): < 1; EC50 [7, 18]: 54.2 µM; EC50 ([7]; Schistosoma mansoni, female, 0-72 h, read-out: EC50 against female adult worms (motility), span over incubation times): > 30 µM; EC50 [7, 30]: > 30 µM; EC50 [7, 22]: 101 µM; EC50 [7, 31]: 89 µM; EC50 [7, 24]: 33 µM; EC50 [7, 25]: 49 µM; EC50 [7, 26]: 40 µM; number of juvenile worms with viability score 0 [8]: 21; number of juvenile worms with viability score 1 [8]: 1; number of juvenile worms with viability score 2 [8]: 3; number of juvenile worms with viability score 3 [8]: 7
